In assay [1] the test system is NMDAR-mediated currents in VTA dopamine cells. In words: CRF-related peptides on NMDAR-mediated currents at excitatory synapses onto VTA dopamine cells. It counts as cell-based. As to conditions: mammalian brain.
Assay [2] has as its system NMDAR eEPSCs. As to conditions: cited from earlier work.
The test system of assay [3] is 10% ethanol consumption. In words: Voluntary ethanol consumption, limited-access two-bottle choice, icv infusion. As to conditions: 5 μg ICV, n=14. It counts as in vivo, Long Evans rats. On the procedure: Agents in these in vivo studies were administered to either the lateral ventricle (icv) or ventral tegmental area (VTA) in rats by cannulae, which were implanted as follows. One week after the rats achieved baseline drinking and lever pressing levels in the 2-bottle choice and ethanol self-administration paradigms described below, they were anesthetized with 75 mg/kg pentobarbital sodium and placed in a stereotaxic frame. The head was shaved and scrubbed with an antiseptic solution of betadine/2% H2O2, followed by 2.5% topical xylocalne jelly. The skull was exposed and two to three holes were drilled for implantation of sterile miniature skull screws (⅛″, Small Parts, Inc.). […]
These experiments test the effects of the CRF system on voluntary ethanol consumption using a limited-access paradigm. […] Animal weights were measured daily in order to calculate the gram per kilogram intake. Ethanol preference (%) was calculated as the grams of ethanol consumed divided by the total fluid consumption (grams of ethanol+grams of water). The data was corrected for evaporation and spillage by subtracting the mean fluid loss measured in four drinking tubes placed on empty cages. […]
The effects of CRF (5 μg) and the CRF inhibitor CRF (6-33) (5 μg) on limited access (30 min) 10% ethanol drinking were measured using a limited-access two-bottle choice procedure.

“Also recorded” adds a separate entry of the source. Where no end group is shown, it is not given here.

With “CRF: Corticotrophin-releasing factor, a 41 amino acid peptide; direct CRF receptor agonist (SEEPPISLDLTFHLLREVLEMARAEQLAQQAHSNRKLMEII; ends and bridges not checked; UniProt P06850 154-194, looked up)”, in assay [1], the “potentiation of NMDAR currents” value is reported as “increases”. Besides, the “potentiation of NMDARs” value in assay [2] (10 nM CRF, mice) was “no potentiation”. In addition, the “NMDAR eEPSCs, concentration dependent” value in assay [2] (mice (FIG. 13)) is on record as “increased”. Consider “CRF (6-33): indirect CRF receptor antagonist that acts by displacing CRF from CRF-BP (ISLDLTFHLLREVLEMARAEQLAQQAHS; Corticoliberin; UniProt P06850 159-186, looked up, fragment)”, for which the 10% ethanol consumption result in assay [3] (limited access, compared to CRF alone) was “significantly reduced”. Further, in assay [3], the water consumption result was “no effect; also recorded: did not reduce”. Regarding “Urocortin II: peptide that does not bind CRF-BP (IVLSLDVPIGLLQILLEQARARAAREQATTNARILARVGHC; ends and bridges not checked; UniProt Q96RP3 72-112, looked up)”, the “potentiation of NMDAR currents” value in assay [1] is “do not potentiate”. Same read-out and setting: with “ovine CRF: CRF form that does not bind CRF-BP (SQEPPISLDLTFHLLREVLEMTKADQLAQQAHSNRKLLDIA; ends and bridges not checked; UniProt P01142 148-188, looked up)” the entry was “do not potentiate”.
